The subject of one series is HIV. The following applies: in vitro, 1000 µg/ml; cited from earlier work.
A further series has as its system macrophages de cobayes. Conditions: guinea pig macrophages; cited from earlier work.
Details of series [1]: species or system homme. Conditions: in vivo. An excerpt:
Des composés préférés pour l'utilisation selon l'invention sont le Murabutide (Nac-Mur-L-Ala-DGln OnC4H9) et le Muramétide (Nac-Mur-L-Ala-DGln OMe).

A further series relates to VIH (HTLV III Ba-L). Briefly: HIV replication in primary human monocyte cultures (viral protein P24 in supernatants, day 7). The class given is cell-based. The following applies: P24 at day 7. An excerpt: L'exemple 2 démontre l'effet du Murabutide et du Muramétide sur le niveau de réplication du VIH dans des cultures primaires de monocytes humains prélevés sur des volontaires sains. Des cultures monocytaires ont été infectées au jour 0 par une source VIH (HTLV III Ba-L) qui présente un tropisme pour les monocytes. Certaines cultures furent traitées par différentes concentrations des composés soit 1 jour avant, soit le même jour, soit 1 jour après l'inoculation par le VIH. La réplication du virus a été évaluée au jour 7 par la mesure de la quantité de protéine virale P24 dans les surnageants comme décrite dans Blood, Vol.76, page 1490-1493, 1990.

A further series deals with macrophages. The experiment in a line: Macrophage proliferation in cultured donor monocytes (3H-thymidine incorporation). In kind it is cell-based, humains. Conditions: for inhibition de la prolifération des macrophages stimulées par la combinaison IL-3/GM-CSF / inhibition de la prolifération des macrophages stimulées par l'IL-3: 1 µg/ml, compound added one day before 3H-thymidine, 5-day culture; for inhibition de la prolifération des macrophages stimulées par la combinaison IL-3/GM-CSF: rh IL-3 + rh GM-CSF stimulated; for inhibition de la prolifération des macrophages stimulées par l'IL-3: rh IL-3 stimulated; for inhibition de la prolifération spontanée: no stimulation. An excerpt:
Pour cela, des monocytes prélevés chez un donneur sont mis en culture pendant 5 jours soit a) sans stimulation (afin d'évaluer leur niveau de prolifération spontanée) soit b) en présence d'interleukine 3 recombinante humaine (rh IL-3) soit c) en présence et de rh IL-3 et de rh GM-CSF "granulocyte-macrophage colony stimulating factor" recombinant humain. […] Les composés de l'invention sont ajoutés au milieu de culture un jour avant l'addition de thymidine tritiée (^3H-thymidine). Les cellules en voie de division incorporent cette thymidine. Les cellules (qui se sont différenciées en macrophages pendant la durée de la culture) sont recueillies et lavées, et on évalue le niveau de prolifération en mesurant dans un compteur beta, la quantité de ^3H incorporée suivant des méthodes classiques telles que décrites dans Blood, Vol. 76, pages 1490-1493, 1990.
(Uptake of a labelled nucleoside into DNA is a usual measure of proliferation.)

Take `CC(=O)N[C@H]1C(O)O[C@H](CO)[C@@H](O)[C@@H]1O[C@H](C)C(=O)N[C@@H](C)C(=O)N[C@H](CCC(=O)O)C(N)=O` (stereo partly drawn) [MDP, N-acétyl-muramyl-L-alanyl-D- Isoglutamine]: the “inhibition de la réplication de HIV” value in the series on HIV is listed as “inhiber partiellement la réplication de HIV”. In the series with macrophages de cobayes, the “inhibition de la prolifération des macrophages” value is listed as “inhiber la prolifération des macrophages de cobayes”.
Consider `CCCCOC(=O)[C@@H](CCC(N)=O)NC(=O)[C@H](C)NC(=O)[C@@H](C)O[C@H]1[C@H](O)[C@@H](CO)OC(O)[C@@H]1NC(C)=O` (stereo partly drawn) [Murabutide, Nac-Mur-L-Ala-DGln OnC4H9], for which, in series [1], the effets secondaires entry is given as “dénuées d'effets secondaires” and the tolérance entry was “très bonne tolérance”. In addition, in the series on VIH (HTLV III Ba-L) (10 à 50 µg/ml, treatment on day -1, day 0 or day +1 relative to infection), the “inhibition de la réplication virale” value is on record as “inhibe complètement la réplication virale”. Besides, in the series on macrophages, the “inhibition de la prolifération des macrophages stimulées par la combinaison IL-3/GM-CSF” value is listed as “inhiber la prolifération des macrophages” and the “inhibition de la prolifération des macrophages stimulées par l'IL-3” value is reported as “inhiber la prolifération des macrophages”. In addition, in the series with macrophages (10 µg/ml), the “inhibition de la prolifération spontanée” value is on record as “inhibition de la prolifération spontanée a été observé”.
Regarding `COC(=O)[C@@H](CCC(N)=O)NC(=O)[C@H](C)NC(=O)[C@@H](C)O[C@H]1[C@H](O)[C@@H](CO)OC(O)[C@@H]1NC(C)=O` (stereo partly drawn) [Muramétide, Nac-Mur-L-Ala-DGln OMe], in series [1], the effets secondaires result is recorded as “dénuées d'effets secondaires” and the tolérance result is “très bonne tolérance”. The inhibition at 50 µg/mL in the series with VIH (HTLV III Ba-L) (Human immunodeficiency virus 1, BAL, Monocyte, 168 h, 50 µg/ml, whatever the time of treatment (day -1, 0 or +1), read-out: suppression de la réplication virale) came out at 100%. Besides, the “suppression de la réplication virale” value with VIH (HTLV III Ba-L) (different concentrations, treatment day -1, 0 or +1) is “suppression hautement significative de la réplication virale”. Besides, in the series with macrophages, the “inhibition de la prolifération des macrophages stimulées par la combinaison IL-3/GM-CSF” value was “inhiber la prolifération des macrophages” and the “inhibition de la prolifération des macrophages stimulées par l'IL-3” value is reported as “inhiber la prolifération des macrophages”. Further, in the series with macrophages (10 µg/ml), the “inhibition de la prolifération spontanée” value was “inhibition de la prolifération spontanée a été observé”. Moreover, in the series on macrophages (50 µg/ml), the “inhibition de la prolifération spontanée” value is recorded as “inhibition de la prolifération spontanée a été observé”.

Source of the values: patent EP0783319B1, “MURAMYL PEPTIDE COMPOSITIONS FOR INHIBITING HIV REPLICATION” (VACSYN S.A., priority 1994, dated 1996).
